Test results taken from BindingDB's records for doi:10.1016/s0969-8051(99)00080-3 (Emory University, 2000).

Legend:
[1] = biological target: Sodium-dependent noradrenaline transporter (Homo sapiens, UniProt P23975)
[2] = biological target: Sodium-dependent dopamine transporter (Homo sapiens, UniProt Q01959)
Chain of Sodium-dependent dopamine transporter (Q01959 whole entry): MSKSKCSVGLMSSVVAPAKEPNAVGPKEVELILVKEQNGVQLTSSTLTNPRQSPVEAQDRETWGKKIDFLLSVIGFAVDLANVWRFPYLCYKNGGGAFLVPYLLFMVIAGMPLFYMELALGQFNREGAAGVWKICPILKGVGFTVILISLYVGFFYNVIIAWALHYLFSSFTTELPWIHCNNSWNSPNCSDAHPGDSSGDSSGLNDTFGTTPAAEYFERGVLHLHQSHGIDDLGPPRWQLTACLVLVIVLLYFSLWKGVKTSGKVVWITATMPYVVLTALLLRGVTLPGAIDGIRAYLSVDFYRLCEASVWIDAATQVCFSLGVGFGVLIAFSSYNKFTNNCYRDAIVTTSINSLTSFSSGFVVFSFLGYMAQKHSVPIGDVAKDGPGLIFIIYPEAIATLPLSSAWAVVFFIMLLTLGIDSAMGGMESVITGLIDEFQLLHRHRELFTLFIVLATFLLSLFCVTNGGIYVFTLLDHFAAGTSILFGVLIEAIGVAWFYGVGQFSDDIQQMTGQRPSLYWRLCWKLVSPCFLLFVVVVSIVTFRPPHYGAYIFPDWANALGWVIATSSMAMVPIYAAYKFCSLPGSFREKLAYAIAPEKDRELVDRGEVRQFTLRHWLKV

Chain of Sodium-dependent noradrenaline transporter (P23975 whole entry): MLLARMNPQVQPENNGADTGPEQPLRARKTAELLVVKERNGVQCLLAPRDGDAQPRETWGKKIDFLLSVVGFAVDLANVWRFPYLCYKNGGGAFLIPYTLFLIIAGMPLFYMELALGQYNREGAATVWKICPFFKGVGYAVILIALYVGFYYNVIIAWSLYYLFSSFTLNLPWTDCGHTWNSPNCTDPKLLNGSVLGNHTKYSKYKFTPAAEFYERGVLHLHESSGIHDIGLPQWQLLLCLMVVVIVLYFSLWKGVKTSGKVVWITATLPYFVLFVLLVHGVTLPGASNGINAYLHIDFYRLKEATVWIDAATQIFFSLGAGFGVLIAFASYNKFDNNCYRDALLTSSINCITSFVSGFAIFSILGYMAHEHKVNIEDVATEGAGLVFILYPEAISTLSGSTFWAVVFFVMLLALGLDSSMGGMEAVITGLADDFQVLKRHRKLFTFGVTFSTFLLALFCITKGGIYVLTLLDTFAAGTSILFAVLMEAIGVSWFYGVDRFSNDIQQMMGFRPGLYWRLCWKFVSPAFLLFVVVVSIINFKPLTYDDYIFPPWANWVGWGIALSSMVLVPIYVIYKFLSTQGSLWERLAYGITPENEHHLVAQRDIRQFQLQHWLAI

Work on `COC(=O)C1C(c2ccc(Cl)cc2)CC2CCC1N2CCF` (configuration not stated) [MOLI000038] yielded a Ki [1] of 240 nM and a Ki [2] of 1.53 nM.
